Source: patent publication US20090118223A1, “Novel 2'-c-methyl and 4'c-methyl nucleoside derivatives” (priority 2005, published 2009)
Structures can show the parent of a compound that is named as a salt. Values belong to the compound of their own block, whether it stands above or below them.

Experiments:
[1] = tested on: HCV replication in human liver tissue; assay: HCV-infected human liver slice assay (Example F); type: cell-based; conditions: for amount of HCV RNA released into the culture medium from 48-72 h: treatment of HCV-infected human liver slices for 72 h
Method: Inhibition of HCV replication in human liver tissue was evaluated using the following assay.
Liver from a brain-dead HCV antibody-positive human patient was perfused with ice-cold Viaspan (Dupont Pharmaceutical) preservation solution and received on ice in Viaspan.
Precision-cut liver slices of 200-250 μm thickness and […] diameter were prepared and cultured in Waymouth's cell culture medium (Gibco, Inc.) that was supplemented with 10% fetal bovine serum and 10 mL/L Fungi-Bact at 37° C., and gassed with carbogen (95% O2, 5% CO2) at 0.75 liters/min. Tissue slices were maintained in culture for 72 h. Cell culture medium containing test compound in solution was changed on a daily basis.
At appropriate times of liver slice incubation, liver slices and medium were collected for analysis of HCV RNA (tissue and medium) and nucleotide levels (NTP). All collected media and tissue slices were maintained in liquid N2 until analysis.
Medium and tissue samples were analyzed for HCV RNA levels according to published procedures (Bonacini et. al., 1999) which utilize an automated, multicycle, polymerase chain reaction (PCR)-based technique. This assay has a lower limit of detection for HCV RNA of 100 viral copies/ml.
Frozen liver slices were disrupted by using a combination of ultrasound probe sonication, Branson Sonifier 450 (Branson Ultrasonics, Danbury, Conn.) and homogenization using a Dounce conical pestle in 200 μls of 10% (v/v) perchloric acid (PCA). After a […] centrifugation at 2,500×g, the supernatants were neutralized using 3 M KOH/3 M KHCO3 and mixed thoroughly. The neutralized samples were centrifuged at 2,500 g for 5 min and NTP levels were determined by ion exchange phase HPLC (Hewlett Packard 1050) using a Whatman Partisil 5 SAX (5 μm, 4.6×250 mm) column. […] Nucleoside triphosphates were eluted from the column using a linear gradient to 80% 1 M ammonium phosphate pH 3.5/6% ethanol buffer, at a flow rate of 1.25 mL/min and detected by UV absorbance (254 nm).

[2] = Liver targeting of 2′-C-methylcytidine and its prodrugs in rats: liver NTP vs plasma nucleoside (Example K); type: in vivo; conditions: male Sprague-Dawley rats, intraperitoneal, 5 mg/kg nucleoside equivalents
Method: The liver specificity of the prodrug compounds 35.3, 35.4, and 35.5 was compared relative to the parent nucleoside, 2′-C-methylcytidine, by measuring the generation of NTP in the liver compared to nucleoside in the plasma.
Prodrug compounds 35.3, 35.4, 35.5, 38.3, 38.6, 40.1, 40.6, 40.7, 40.8, 41.2 or 2′-C-methylcytidine were administered intraperitoneally to male Sprague-Dawley rats at a dose of 5 mg/kg based on nucleoside equivalents (5 mg/kg 2′-C-methylcytidine and ˜7-10 mg/kg prodrug compounds). Plasma concentrations of 2′-C-methylcytidine and the liver concentrations of the 5′-triphosphate of 2′-C-methylcytidine were measured by LC-MS using the standard ion-pairing chromatography methods for nucleoside and triphospliate, respectively, as described in Example E. Conventional SAX HPLC-UV could not differentiate between endogenous CTP and 2′-C-methylcytidine triphosphate.

- melting point: 182 to 185 °C
Compound: CC(=O)O[C@@H]1[C@@H](CO[P@@]2(=O)OCCC(c3ccncc3)O2)O[C@@H](n2ccc3c(N)ncnc32)[C@]1(C)O (some centres unmarked) [Compound 22.1]

- melting point: 90 to 93 °C
Compound: CC(=O)O[C@@H]1[C@@H](CO[P@@]2(=O)OCC[C@@H](c3cccc(Cl)c3)O2)O[C@@H](n2ccc3c(N)ncnc32)[C@]1(C)O [Compound 22.2, 4-amino-7-(3′-O-acetyl-cis-5′-O-[4-(S)-(3-chlorophenyl)-2-oxo-1,3,2-dioxaphosphorinan-2-yl]-2′-C-methyl-beta-D-ribofuranosyl)-7H-pyrrolo[2,3-d]pyrimidine]

More lines, now with the values behind:

Compound: C[C@@]1(O)[C@H](O)[C@@H](COP2(=O)OCC[C@H](c3cccc(Cl)c3)O2)O[C@H]1n1ccc2c(=O)[nH]c(N)nc21 (stereo partly drawn) (as salt: trifluoroacetic acid salt) [Compound 17.10, 2-amino-7-(cis-5′-O-[4-(R)-(3-chlorophenyl)-2-oxo-1,3,2-dioxaphosphorinan-2-yl]-2′-C methyl-beta-D-ribofuranosyl)-7H-pyrrolo[2,3-d]pyrimidin-4(3H)-one trifluoroacetic acid salt]
- melting point: 170 to 180 °C

Compound: C[C@@]1(O)[C@H](O)[C@@H](CO[P@]2(=O)OCC[C@H](c3cccc(Cl)c3)O2)O[C@H]1n1cnc2c(=O)[nH]c(N)nc21 (relative stereo) [Compound 19, cis-5′-O-[4-(3-Chlorophenyl)-2-oxo-1,3,2-dioxaphosphorinan-2-yl]-2′-C-methylguanosine]
- lowering viral RNA production in the culture medium, prodrug compared with nucleoside 2′-C-methylguanosine ([1]; HCV-infected human liver slices, 72 h): more effective
- amount of HCV RNA released into the culture medium from 48-72 h [1]: decreased

Compound: CC(C)[C@H](N)C(=O)O[C@@H]1[C@@H](CO[P@@]2(=O)OCC[C@@H](c3cccc(Cl)c3)O2)O[C@@H](n2ccc(N)nc2=O)[C@]1(C)O.O=C(O)C(F)(F)F (relative stereo) [Compound 41.2, cis-5′-O-[4-(S)-(3-Chlorophenyl)-2-oxo-1,2,3-dioxaphosphorin-2-yl]-2′-C-methyl-3′-(L-valinyl)cytidine trifluoroacetic acid salt]
- Liver Targeting Index (Liver/Plasma) [2]: 302
- Cmax ([2]; 2′-C-methylcytidine): 340 nM
- Prodrug Improvement (Fold) ([2]; liver targeting over free nucleoside): 4081 Fold

Compound: C[C@@]1(O)[C@H](O)[C@@H](CO)O[C@H]1n1cnc2c(=O)[nH]c(N)nc21 [2′-C-methylguanosine, reference compound]
- amount of HCV RNA released into the culture medium from 48-72 h [1]: decreased

Compound: C[C@@]1(O)[C@H](O)[C@@H](COP2(=O)OCC[C@@H](c3ccncc3)O2)O[C@H]1n1ccc2c(=O)[nH]c(N)nc21 (stereo partly drawn) [Compound 17.13, 2-amino-7-(cis-5′-O-[4-(S)-(pyridin-4-yl)-2-oxo-1,3,2-dioxaphosphorinan-2-yl]-2′-C methyl-beta-D-ribofuranosyl)-7H-pyrrolo[2,3-d]pyrimidin-4(3H)-one]
- melting point: 138 to 141 °C

Compound: C[C@@]1(O)[C@H](O)[C@@H](COP2(=O)OCC[C@H](c3ccccc3)O2)O[C@H]1n1ccc2c(=O)[nH]c(N)nc21 (stereo partly drawn) [Compound 17.16, 2-amino-7-(cis-5′-O-[4-(R)-phenyl-2-oxo-1,3,2-dioxaphosphorinan-2-yl]-2′-C methyl-beta-D-ribofuranosyl)-7H-pyrrolo[2,3-d]pyrimidin-4(3)-one]
- melting point: 128 to 133 °C
